Counter-ions that a name gives are not always drawn.
Key:
Wistar-strain male rats = experiment: Hypoglycemic effect (blood glucose level in fasted, glucose-loaded rats); format: in vivo; conditions: 100 mg/kg oral, 2 hours later; for Blood Glucose Level: fasted rats with s.c. 20% glucose 0.5 ml/100 g, control 139 ± 3; for inhibition in vivo at 100 mg/kg: Rattus norvegicus, decrease vs control (139 ± 3 mg/dl)
Description: Groups of 7 Wistar-strain male rats (weighing about 200 g) which were fasted for 20 hours were used for measurement of the hypoglycemic effect according to the modified method by Dulin et al. [Dulin, W. L. et al., Proc. Soc. Expl. Med., 107, 245 (1961)]. That is, 0.5 ml/100 g of 20% aqueous solution of glucose was subcutaneously administered to the backs of rats to prevent a decrease in blood glucose level because of the fasting. […] The obtained blood sample was allowed to stand for 30 minutes to complete the coagulation and was centrifuged to obtain the serum. Blood sugar level was measured according to the mutalotase GOD method [Trinder, Ann. Clin. Biochem., 6, 24 (1979)].

[1] = Acute toxicity test (oral, lethal dose by deaths over 7 days); conditions: mouse, in vivo, suspended in 0.5% aqueous C.M.C., fasted 20 hours, deaths for 7 days
Description: The test compounds of the present invention suspended in 0.5% aqueous solution of carboxymethylcellulose (C.M.C.) were orally administered to groups of 4 to 6 ddY-strain male mice (weighing about 19 g) which had fasten for 20 hours. The lethal dose was determined by the number of deaths for 7 days thereafter.

Row | SMILES | Blood Glucose Level (Wistar-strain male rats) | inhibition in vivo at 100 mg/kg (Wistar-strain male rats) | LD50 at 168 h [1]
1 | CCCCCCCCOC(=O)C(=O)NC(=O)NC [compound 22, 5-methyloxaluric acid octyl ester] | 122 ± 2 mg/dL | 12.2% | –
2 | CCCCNC(=O)NS(=O)(=O)c1ccc(C)cc1 [Tolubutamide, reference compound] | 50 ± 1 mg/dL | 64% | –
3 | CCCCNC(=O)NC(=O)C(=O)O [compound 3, 5-butyloxaluric acid] | 103 ± 5 mg/dL | 26% | –
4 | CNC(=O)NC(=O)C(=O)OCC(C)C [compound 21, 5-methyloxaluric acid iso-butyl ester] | 115 ± 4 mg/dL | 17.3% | –
5 | CCOC(=O)C(=O)NC(=O)NC [compound 12, 5-methyloxaluric acid ethyl ester] | 81 ± 5 mg/dL | 41.7% | –
6 | CCCCNC(=O)NC(=O)C(=O)OC [compound 13, 5-butyloxaluric acid methyl ester] | 88 ± 3 mg/dL | 36.7% | 1000 to 2000 mg/kg
7 | CCCCOC(=O)C(=O)NC(=O)NC [compound 20, 5-methyloxaluric acid butyl ester] | 101 ± 6 mg/dL | 27.3% | > 4000 mg/kg
8 | CCNC(=O)NC(=O)C(=O)O [compound 2, 5-ethyloxaluric acid ammonium salt] | 102 ± 4 mg/dL | 26.6% | 3000 to 4000 mg/kg
9 | CCOC(=O)C(=O)NC(=O)NCC(C)C [compound 14, 5-iso-butyloxaluric acid ethyl ester] | 93 ± 2 mg/dL | 33.1% | –
10 | CNC(=O)NC(=O)C(=O)O [compound 1, 5-methyloxaluric acid ammonium salt] | 104 ± 7 mg/dL | 25.2% | –

Reference: US4708954A, “Hypogylcemic oxaluric acid derivatives” (Nippon Zoki Pharmaceutical Co., Ltd., priority 1985, dated 1987)
